The subject of test [1] is DU 145 (KLF5 null) cells expressing KLF5^K369Q. The test can be described thus: CCK-8 cell viability assay. To be noted: for cell number: DU 145-KQ. The test is classed as cell-based, human. How it is done:
(§1) According to the manufacturer's instructions, cell viability was measured using a kit from Beyotime Biotechnology. Briefly, cells were seeded onto 96-well plates at 5 × 10^3 cells per well, incubated overnight, and then treated for 48 h with drugs at 0, 0.02, 0.05, 0.14, 0.41, 1.23, 3.7, 11.1, 33.3, and 100 μM. Four drugs were analyzed: furagin, nifuratel, nitazoxanide, and retapamulin. At the end of drug treatment, the medium was removed, the CCK-8 solution was added into each well at 100 μL/well and incubated for 1.5 h at 37°C, and the optical density (OD) was measured at 450 nm using a microplate reader (BioTek).
(§2) We also tested a wider range of NTZ concentrations in PC-3-KQ and DU 145-KQ cells using the CCK-8 assay by seeding 2 × 10^3 cells and 2.5 × 10^3 cells onto each well of 96-well plates. PC-3-KQ cells were treated with NTZ at 0, 0.01, 0.1, […], 2.5, and 5 μM, while DU 145-KQ cells were treated with NTZ at 0, 0.01, 0.1, 5, 10, and 20 μM for 0, 24, 48, and 72 h. The number of viable cells was determined using the CCK-8 solution as described above.
For orientation: Tetrazolium dyes change colour on reduction, which living cells bring about.

Test [2] concerns PC-3 (KLF5 null) cells expressing KLF5^K369Q. Nature of the test: CCK-8 cell viability assay. Type of test: cell-based, human. To be noted: for cell number: PC-3-KQ. On the procedure: as §1, §2
Test [3] deals with PC-3-KQ-Luc cells. The test can be described thus: Bone metastasis assay, prevention mode. Type of test: in vivo, Balb/c nude mice. The conditions noted are these: 100 mg/kg intragastric every day. The text has this: (§3) Male Balb/c nude mice at 3-4 weeks old were purchased from Charles River (Beijing, China). Upon arrival at the Animal Center of the Southern University of Science and Technology (SUSTech), mice were quarantined for one week before use. All mice were maintained and handled following the National Institutes of Health guide for the Care and Use of Laboratory Animals. To measure if NTZ inhibits Ac-KLF5-induced bone metastasis, we used both prevention and therapy modes. […] Then the mice were randomly divided into vehicle and NTZ groups (six mice in each group) and received treatment at day 0. The tumor growth and body weight were determined every week. After 5 weeks of treatment, all mice were sacrificed and bone tissues and major organs were resected for hematoxylin and eosin (H&E) staining. The selection of 5 weeks for investigation is based on the pilot experiment, in which clear bone metastases formed at 5 weeks after injection but no tumors were detected in other organs, including the brain, liver, lung, spleen, heart, prostate, seminal vesicle, small intestine, and testes (data not shown). Tumor growth in the bone was determined once a week by in vivo BL imaging using the Living Image Software 4.4 (IVIS Spectrum, PerkinElmer Health Sciences, Massachusetts, USA). Ten minutes after intraperitoneal injection of D-luciferin sodium salt (15 mg/mL, 10 μL/g BW) (GM-040611, Genomeditech, Shanghai, China), bioluminescence images were acquired with the following conditions: open emission filter, exposure time = 60 s, binning = medium: 8, field of view = 12.9 ×12.9 cm, and f/stop = 1. Images were then analyzed using the Living Image 4.4 software (PerkinElmer). At the end of treatment, bioluminescence intensities were measured by photon flux of the region of interest (ROI) and compared between the vehicle and NTZ treatment groups. […] CC0113, […] Biotechnology, Beijing, China) was used as vehicle control, and NTZ was solved in CMC. NTZ was delivered into mice via intragastric administration (100 mg/kg BW) every day. Femurs were decalcified in ethylenediaminetetraacetic (EDTA) decalcification solution (Cat #: R20403-5L, OKA, Beijing, China) for 14-21 days. After decalcification, bone tissues were dehydrated in gradient ethanol from 70 to 95%, soaked in n-butanol for 6 h, and then embedded in paraffin. Tissue blocks were cut into 4 μm sections. After baking in an oven at 63°C for 1.5 h, tissue slides were deparaffinized with xylene, hydrated with gradient ethanol, and then stained with H&E (Cat #: BA4025, BaSO, Zhuhai, China). Slides were then mounted for analysis with neutral resins (Cat #: 25608-33-7, Sigma-Aldrich, MO, USA).

Test [4] concerns PC-3-KR-Luc cells. Nature of the test: Bone metastasis assay, prevention mode. The conditions noted are these: 100 mg/kg intragastric every day. Type of test: in vivo, Balb/c nude mice.
From the text: as §3

The test system of test [5] is PC-3-KLF5, PC-3-KQ, DU 145-KLF5 and DU 145-KQ cell spheroids. Nature of the test: 3D spheroid invasion assay, KLF5^K369Q- versus KLF5-expressing cells. Type of test: cell-based, human. To be noted: 0-10 μM. On the procedure:
The invasion assay was performed as previously described. Briefly, PC-3-KQ cells at 80-90% confluency were plated onto 384-well round bottom plates with ultra-low attachment (Cat #: 4516, Corning) at 500 cells per well in 80 μL medium. The plates were then centrifuged at 320 g for 4 min to cluster cells in the bottom of wells and incubated for 3 days. On the fourth day, 40 μL medium was removed from each well, 40 μL of the matrigel-medium mixture was added to each well, and cells were cultured for another 3 days. The matrigel (Cat #: 354234, Corning) was from Corning, and the medium contained 1% FBS. At the end of the incubation, images were taken using a phase contrast microscope (Eclipse Ti2, Nikon, Tokyo, Japan) with 10× object lenses, and the total area of cells and the core sphere area of cells (Fig. 1a) were measured using the Image J software. The invading area was calculated using the following formula: invasion area = total area of cells – core sphere area.
Figure S2. The effect of NTZ on acetylated (KQ) and non-mutated KLF5 cell invasion. (a) The effect of NTZ on the invasion of PC-3-KLF5, PC-3-KQ, DU 145-KLF5 and DU 145-KQ cell spheroids at different concentrations (0-10 μM) and quantitative analysis (b). *, p < 0.05; ***, p < 0.001.

Setting [6] is: lower concentrations (0–0.1 μM), 0 to 72 h.

Usually IC50 stands for the midpoint of a concentration-inhibition curve. High values mean lower potency, low ones higher potency.

As for `CC(=O)Oc1ccccc1C(=O)Nc1ncc([N+](=O)[O-])s1` [Nitazoxanide], the cell number result is on record as “decreased cell number” in test [1] (higher concentrations (up to 20 μM)), “did not affect cell number” in test [1] (setting [6]), “decreased cell number” in test [2] (higher concentrations (up to 5 μM)) and “did not affect cell number” in test [2] (setting [6]). The IC50 came out at 22.7 ± 2.3 µM in test [1] (Homo sapiens, DU 145 (KLF5 null), KLF5^K369Q, CCK-8, 48 h) and 5.4 ± 0.5 µM in test [2] (Homo sapiens, PC-3 (KLF5 null), KLF5^K369Q, CCK-8, 48 h). Also, the “tumor cell area in bone sections (H&E)” value in test [3] is on record as “significantly decreased tumor cell area”; in test [4], “not significantly affected”. Besides, in test [3] (day 35), the “bone metastasis, bioluminescence signals” value is reported as “dramatically reduced bone metastasis”. In addition, in test [4] (day 35), the bioluminescence intensity entry is “did not have a significant effect”. Further, in test [5], the “invasion inhibition in KLF5^K369Q- versus KLF5-expressing cells” value is listed as “more potent in invasion inhibition”.

The record behind these values is PMC9945734 (BMC Medicine, 2023).
